Reference: ChEMBL document CHEMBL5096216, “Rational Design, Synthesis, and Biological Evaluation of Novel S1PR2 Antagonists for Reversing 5-FU-Resistance in Colorectal Cancer” (J Med Chem, 2022)

How the values were obtained:
SW620/5-FU [1] = assay: Antitumor activity against human SW620/5-FU cells xenografted in nude mouse assessed as tumor volume at 15 mg/kg, iv administered once for every 3 days and measured on day 1 (reference value: 105 +/- 14 mm3); type: functional; settings: time 1 day
HT-29 [2] = assay: Antiproliferative activity against human HT-29 cells assessed as cell growth inhibition at 40 uM incubated for 48 hrs by MTT assay relative to control; type: functional; design: scale not given: the % may be the effect or the level left
SW620/5-FU [3] = assay: Antitumor activity against human SW620/5-FU cells xenografted in nude mouse assessed as tumor volume at 15 mg/kg, iv administered once daily and measured on day 15 (reference value: 1991 +/- 469 mm3); type: functional; settings: time 15 day
HCT-116 [4] = assay: Antiproliferative activity against human HCT-116 cells overexpressing DPD assessed as reduction in cell viability at 40 uM incubated for 48 hrs by MTT assay; type: functional
SW620/5-FU [5] = assay: Antiproliferative activity against human SW620/5-FU cells assessed as reduction in cell viability at 40 uM incubated for 48 hrs by MTT assay; type: functional
SW620/5-FU [6] = assay: Antitumor activity against human SW620/5-FU cells xenografted in nude mouse assessed as tumor wight at 15 mg/kg/day, iv (reference value: 1.3 +/- 0.6 g); type: functional
SW620/5-FU [7] = assay: Antitumor activity against human SW620/5-FU cells xenografted in nude mouse assessed as tumor volume at 15 mg/kg, iv administered once for every 3 days and measured on day 15 (reference value: 1991 +/- 469 mm3); type: functional; settings: time 15 day
HCT-116 [8] = assay: Antiproliferative activity against human HCT-116 cells assessed as reduction in cell viability incubated for 48 hrs by MTT assay; settings: HCT-116, 48 h
SW-620 [9] = assay: Antiproliferative activity against human SW620 cells assessed as cell growth inhibition at 40 uM incubated for 48 hrs by MTT assay relative to control; type: functional; design: scale not given: the % may be the effect or the level left
SW620/5-FU [10] = assay: Induction of apoptosis in human SW620/5-FU cells assessed as early apoptotic cells at 40 uM incubated for 24 hrs by Annexin-V/PI staining based flow cytometry assay (reference value: 2.73%); type: functional
SW-620 [11] = assay: Antiproliferative activity against human SW620 cells assessed as reduction in cell viability incubated for 48 hrs by MTT assay; type: functional, cell-based; settings: SW-620, 48 h
SW620/5-FU [12] = assay: Induction of apoptosis in human SW620/5-FU cells assessed as viable cells at 40 uM incubated for 24 hrs by Annexin-V/PI staining based flow cytometry assay (reference value: 94.3%); type: functional; settings: read-out: Activity
SW620/5-FU [13] = assay: Antitumor activity against human SW620/5-FU cells xenografted in nude mouse assessed as tumor wight at 15 mg/kg, iv administered once for every 3 days (reference value: 1.3 +/- 0.6 g); type: functional
SW620/5-FU [14] = assay: Antitumor activity against human SW620/5-FU cells xenografted in nude mouse assessed as tumor volume at 15 mg/kg, iv administered once daily and measured on day 1 (reference value: 105 +/- 14 mm3); type: functional; settings: time 1 day
SW620/5-FU [15] = assay: Induction of apoptosis in human SW620/5-FU cells assessed as necrotic cells at 40 uM incubated for 24 hrs by Annexin-V/PI staining based flow cytometry assay (reference value: 0%); type: functional
SW620/5-FU [16] = assay: Antitumor activity against human SW620/5-FU cells xenografted in nude mouse assessed as tumor growth inhibition at 15 mg/kg, iv administered once for every 3 days; type: functional; settings: 72 h, read-out: TGI
HT-29 [17] = assay: Antiproliferative activity against human HT-29 cells assessed as reduction in cell viability at 40 uM incubated for 48 hrs by MTT assay; type: functional
SW620/5-FU [18] = assay: Induction of apoptosis in human SW620/5-FU cells assessed as late apoptotic cells at 40 uM incubated for 24 hrs by Annexin-V/PI staining based flow cytometry assay (reference value: 2.97%); type: functional
NCM460 = assay: Cytotoxicity against human NCM460 cells assessed as reduction in cell viability at 40 uM incubated for 48 hrs by MTT assay; type: toxicity, cell-based; settings: ncm460, 48 h
SW620/5-FU [19] = assay: Antitumor activity against human SW620/5-FU cells xenografted in nude mouse assessed as tumor growth inhibition at 15 mg/kg/day, iv; type: functional; settings: read-out: TGI
HCT-116 [20] = assay: Antiproliferative activity against human HCT-116 cells assessed as cell growth inhibition at 40 uM incubated for 48 hrs by MTT assay relative to control; type: functional; design: scale not given: the % may be the effect or the level left

O=c1[nH]cc(F)c(=O)[nH]1 [FLUOROURACIL]
Activity (SW620/5-FU [1]): 104 mm3
Activity (HT-29 [2]): >70%
Activity (SW620/5-FU [3]): 1256 mm3
Activity (HCT-116 [4]): 8.12%
Activity (SW620/5-FU [5]): 9.13%
Activity (SW620/5-FU [6]): 0.8 g
Activity (SW620/5-FU [7]): 1675 mm3
IC50 (HCT-116 [8]): 21.5 µM
Activity (SW-620 [9]): >70%
Activity (SW620/5-FU [10]): 4.41%
IC50 (SW-620 [11]): 13.2 µM
viability at 40 µM (SW620/5-FU [12]): 87.7%
Activity (SW620/5-FU [13]): 1.1 g
Activity (SW620/5-FU [14]): 102 mm3
Activity (SW620/5-FU [15]): 0.17%
inhibition in vivo at 15 mg/kg (SW620/5-FU [16]): 15.9%
Activity (HT-29 [17]): 5.14%
Activity (SW620/5-FU [18]): 7.76%
Activity (NCM460): 25.33%
inhibition in vivo at 15 mg/kg/day (SW620/5-FU [19]): 36.9%
Activity (HCT-116 [20]): >70%
